Source: PubChem BioAssay AID274 (DTP/NCI, 2004)
Toxic doses and inconclusive results are not listed.

System: BDF1 mice, Lewis lung carcinoma iv, survival T/C
Assay: NCI In Vivo Anticancer Drug Screen. Data for tumor model Lewis Lung Carcinoma (intravenous) in B6D2F1 (BDF1) mice
Conditions: endpoint: median survival time, schedule: Q01DX009 (ip), higher = longer survival
Description: The antitumor activity of compounds was measured in mice bearing transplantable tumors. Survival or tumor size were measured and the results are expressed as the measurement made in the treated group (T) divided by the measurement made in the vehicle treated control group (C). The tumor model used in this assay is Lewis Lung Carcinoma (intravenous) in B6D2F1 (BDF1) mice

[1] = dose: 3.12 mg/kg/injection, vehicle: saline with Tween-80
[2] = dose: 6.25 mg/kg/injection, vehicle: saline with Tween-80
[3] = dose: 12.5 mg/kg/injection, vehicle: saline with Tween-80
[4] = dose: 25.0 mg/kg/injection, vehicle: saline
[5] = dose: 50.0 mg/kg/injection, vehicle: saline
[6] = dose: 100.0 mg/kg/injection, vehicle: saline
[7] = dose: 50.0 mg/kg/injection, vehicle: saline with Tween-80
[8] = dose: 100.0 mg/kg/injection, vehicle: saline with Tween-80
[9] = dose: 200.0 mg/kg/injection, vehicle: saline with Tween-80
[10] = dose: 25.0 mg/kg/injection, vehicle: saline with Tween-80
[11] = dose: 3.0 mg/kg/injection, vehicle: saline
[12] = dose: 6.0 mg/kg/injection, vehicle: saline
[13] = dose: 12.5 mg/kg/injection, vehicle: Klucel (hydroxypropylcellulose) (HPC)
[14] = dose: 25.0 mg/kg/injection, vehicle: Klucel (hydroxypropylcellulose) (HPC)

`CC(C)(C)N1CC1CNC(=O)C(=O)NCC1CN1C(C)(C)C` (centres undefined) was tested, and the T/C (dose: 0.78 mg/kg/injection, vehicle: saline with Tween-80) was 111 % of control, the T/C (dose: 1.56 mg/kg/injection, vehicle: saline with Tween-80) was 105 % of control and the T/C [1] was 98 % of control. For the same compound, the T/C [2] was 105 % of control and the T/C [3] was 117 % of control.

With `COC1/C=C/C=C(/C)Cc2cc(O)c(Cl)c(c2)N(C)C(=O)CC(OC(=O)C(C)C)C2(C)OC2C(C)C2CC1(O)NC(=O)O2` (centres undefined) the T/C (dose: 0.12 mg/kg/injection, vehicle: saline + alcohol) was 106 % of control, the T/C (dose: 0.25 mg/kg/injection, vehicle: saline + alcohol) was 110 % of control and the T/C (dose: 0.5 mg/kg/injection, vehicle: saline + alcohol) was 105 % of control. For the same compound, the T/C (dose: 1.0 mg/kg/injection, vehicle: saline + alcohol) was 105 % of control.

With `O=C1CN(CN2CCOCC2)C(=O)CN1CN1CCOCC1` the T/C (dose: 12.5 mg/kg/injection, vehicle: saline) was 118 % of control, the T/C [4] was 113 % of control and the T/C [5] was 95 % of control. For the same compound, the T/C [6] was 93 % of control and the T/C (dose: 200.0 mg/kg/injection, vehicle: saline) was 104 % of control.

With `O.O.[NH-]C1CCCCC1[NH-].[Pt+2]` (centres undefined) the T/C (dose: 0.31 mg/kg/injection, vehicle: dextrose) was 95 % of control, the T/C (dose: 2.5 mg/kg/injection, vehicle: dextrose) was 99 % of control and the T/C (dose: 5.0 mg/kg/injection, vehicle: dextrose) was 112 % of control. The T/C (dose: 10.0 mg/kg/injection, vehicle: dextrose) was 117 % of control.

`Nc1nc(N)c(N=O)c(Nc2ccc(I)cc2)n1` was tested, and the T/C [7] was 97 % of control, the T/C [8] was 95 % of control and the T/C [9] was 95 % of control.

In the case of `Cc1ccc(S(=O)(=O)NC(=O)OC23COCN2COC3)cc1`, the T/C [3] is reported as 98 % of control, the T/C [10] is reported as 105 % of control and the T/C [7] is reported as 96 % of control. For the same compound, the T/C [8] was 98 % of control, the T/C [9] was 98 % of control and the T/C (dose: 400.0 mg/kg/injection, vehicle: saline with Tween-80) was 101 % of control.

`ClCC[Se](Cl)(Cl)c1ccccc1` was tested, and the T/C (dose: 0.78 mg/kg/injection, vehicle: saline) was 98 % of control, the T/C (dose: 1.56 mg/kg/injection, vehicle: saline) was 109 % of control and the T/C [11] was 114 % of control.

`CC(=O)CC(C)=O.CC(=O)CC(C)=O.O=N[O-].O=N[O-].[Co]` was tested, and the T/C [3] was 103 % of control, the T/C [10] was 96 % of control and the T/C [7] was 107 % of control.

In the case of `O=C(NCCCCCCCCCCNC(=O)N1CC1)N1CC1`, the T/C (dose: 0.75 mg/kg/injection, vehicle: saline) is reported as 117 % of control, the T/C (dose: 1.5 mg/kg/injection, vehicle: saline) is reported as 110 % of control and the T/C [11] is reported as 122 % of control. For the same compound, the T/C [12] was 117 % of control.

For `CC(=O)c1c(O)c(C)c(O)c2c1OC1=CC(=O)C(C(C)=O)C(=O)C12C` (centres undefined), the T/C (dose: 50.0 mg/kg/injection, vehicle: gum acacia) was 89 % of control.

`N=C(N)SCc1cccc2c(=O)cc(-c3ccccc3)oc12` was tested, and the T/C [13] was 107 % of control, the T/C [14] was 104 % of control and the T/C [4] was 106 % of control. For the same compound, the T/C (dose: 50.0 mg/kg/injection, vehicle: Klucel (hydroxypropylcellulose) (HPC)) was 107 % of control, the T/C [5] was 94 % of control and the T/C [6] was 100 % of control. The T/C (dose: 400.0 mg/kg/injection, vehicle: saline) was 89 % of control.

With `CN1CCN(c2ccc3nc(-c4ccc5nc(-c6ccc(O)cc6)[nH]c5c4)[nH]c3c2)CC1` the T/C [12] was 95 % of control, the T/C (dose: 12.0 mg/kg/injection, vehicle: saline) was 98 % of control and the T/C [4] was 120 % of control. The T/C [5] was 102 % of control and the T/C [6] was 100 % of control.

In the case of `CC[C@H]1CN2CCc3cc(OC)c(OC)cc3[C@@H]2C[C@@H]1C[C@H]1NCCc2cc(O)c(OC)cc21`, the T/C (dose: 2.0 mg/kg/injection, vehicle: saline) is reported as 109 % of control, the T/C (dose: 4.0 mg/kg/injection, vehicle: saline) is reported as 100 % of control and the T/C (dose: 8.0 mg/kg/injection, vehicle: saline) is reported as 116 % of control. The T/C (dose: 16.0 mg/kg/injection, vehicle: saline) was 116 % of control.

In the case of `CCCCC(=O)OCC(=O)[C@]1(O)Cc2c(O)c3c(c(O)c2[C@@H](OC2CC(NC(=O)C(F)(F)F)C(O)C(C)O2)C1)C(=O)c1c(OC)cccc1C3=O` (some centres undefined), the T/C (dose: 4.0 mg/kg/injection, vehicle: distilled water + Tween-80) is reported as 100 % of control, the T/C (dose: 8.0 mg/kg/injection, vehicle: distilled water + Tween-80) is reported as 102 % of control and the T/C (dose: 16.0 mg/kg/injection, vehicle: distilled water + Tween-80) is reported as 121 % of control.

With `CC(=O)Nc1ccc(Nc2ccc(C(=C3C=CC(=[N+](C)CCC#N)C=C3)c3ccc(N(C)CCC#N)cc3)cc2)cc1` the T/C [3] was 101 % of control and the T/C [10] was 110 % of control.

With `C[C@]12CC[C@H]3[C@@H](CCC4=C[C@@H](OC5OCC(OC6OC(CO)C(O)C(O)C6O)C(O)C5O)CC[C@@]43C=O)[C@@]1(O)CCC2C1=CC(=O)OC1` (some centres undefined) the T/C (dose: 0.16 mg/kg/injection, vehicle: Klucel (hydroxypropylcellulose) (HPC)) was 99 % of control, the T/C (dose: 0.31 mg/kg/injection, vehicle: Klucel (hydroxypropylcellulose) (HPC)) was 100 % of control and the T/C (dose: 0.63 mg/kg/injection, vehicle: Klucel (hydroxypropylcellulose) (HPC)) was 102 % of control. The T/C (dose: 1.25 mg/kg/injection, vehicle: Klucel (hydroxypropylcellulose) (HPC)) was 99 % of control, the T/C (dose: 2.5 mg/kg/injection, vehicle: Klucel (hydroxypropylcellulose) (HPC)) was 122 % of control and the T/C (dose: 5.0 mg/kg/injection, vehicle: Klucel (hydroxypropylcellulose) (HPC)) was 122 % of control.

For `Nc1cc2c3c(cccc3c1)C(=O)N(CCN1CCCC1)C2=O`, the T/C [1] was 99 % of control, the T/C [2] was 103 % of control and the T/C [3] was 103 % of control. The T/C [10] was 115 % of control, the T/C [7] was 113 % of control and the T/C [8] was 119 % of control.

In the case of `C1CN1c1nc(N2CC2)nc(N2CC2)n1`, the T/C (dose: 0.06 mg/kg/injection, vehicle: suspension in saline) is reported as 105 % of control, the T/C (dose: 0.12 mg/kg/injection, vehicle: suspension in saline) is reported as 101 % of control and the T/C (dose: 0.25 mg/kg/injection, vehicle: suspension in saline) is reported as 112 % of control.

For `CC1OC(=O)C(C(C)C)NC(=O)C(C(C)C)OC(=O)C(C(C)C)NC(=O)C(C)OC(=O)C(C(C)C)NC(=O)C(C(C)C)OC(=O)C(C(C)C)NC(=O)C(C)OC(=O)C(C(C)C)NC(=O)C(C(C)C)OC(=O)C(C(C)C)NC1=O` (centres undefined), the T/C (dose: 1.25 mg/kg/injection, vehicle: saline with Tween-80) was 94 % of control, the T/C (dose: 2.5 mg/kg/injection, vehicle: saline with Tween-80) was 102 % of control and the T/C (dose: 5.0 mg/kg/injection, vehicle: saline with Tween-80) was 98 % of control. The T/C (dose: 10.0 mg/kg/injection, vehicle: saline with Tween-80) was 102 % of control, the T/C (dose: 20.0 mg/kg/injection, vehicle: saline with Tween-80) was 89 % of control and the T/C (dose: 40.0 mg/kg/injection, vehicle: saline with Tween-80) was 89 % of control.

For `COc1cc2c[n+](C)c3c4cc5c(cc4ccc3c2cc1OC)OCO5` (tested in a mixture with another compound), the T/C (dose: 3.13 mg/kg/injection, vehicle: Klucel (hydroxypropylcellulose) (HPC)) was 103 % of control, the T/C (dose: 6.25 mg/kg/injection, vehicle: Klucel (hydroxypropylcellulose) (HPC)) was 184 % of control and the T/C [13] was 120 % of control. The T/C [14] was 120 % of control.
